Assay results: the supplement of paper PMC5908809

How the values were obtained:
[1] = tested on: normal NK cells expanded with K562-aAPC; test: percent inhibition of viability; higher = more inhibition; details: 72 h, IL-2 2.5 ng/mL
Method: (§1)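 Drug sensitivity and resistance testing on K562-aAPC-expanded normal NK cells: 5 concentrations (10-fold steps over a 10,000-fold range), 72 h at 37 °C, viability by CellTiter-Glo normalised to DMSO and benzethonium chloride controls; DSS from the fitted curve.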

[2] = tested on: normal primary NK cells, pool 1 (3 donors), resting (IL-2 0 ng/mL); test: as above; details: 72 h
[3] = tested on: normal primary NK cells, pool 1 (3 donors) (IL-2 2.5 ng/mL); test: as above; details: 72 h
[4] = tested on: IMC-1 (IL-2 20 ng/mL); test: as above; details: 72 h
[5] = tested on: KAI3 (IL-2 2.5 ng/mL); test: as above; details: 72 h
[6] = tested on: NK-YS (IL-2 2.5 ng/mL); test: as above; details: 72 h
[7] = tested on: NKL (IL-2 2.5 ng/mL); test: as above; details: 72 h
[8] = tested on: DERL-7 (IL-2 2.5 ng/mL); test: as above; details: 72 h
[9] = tested on: KHYG-1 (IL-2 2.5 ng/mL); test: as above; details: 72 h
[10] = tested on: YT (IL-2 2.5 ng/mL); test: as above; details: 72 h
[11] = tested on: normal primary NK cells, pool 3 (3 donors) (IL-2 2.5 ng/mL); test: as above; details: 72 h
[12] = tested on: SNK-6 (IL-2 2.5 ng/mL); test: as above; details: 72 h
[13] = tested on: NK-92 (IL-2 2.5 ng/mL); test: as above; details: 72 h
[14] = tested on: normal primary NK cells, pool 2 (3 donors) (IL-2 2.5 ng/mL); test: as above; details: 72 h
[15] = tested on: normal NK cells expanded with K562-aAPC; test: drug sensitivity score (DSS) (DSS units); higher = more sensitive; extreme values may be limits of the assay; details: 72 h; IL-2 2.5 ng/mL
Method: as §1

[16] = tested on: normal primary NK cells, pool 1 (3 donors), resting (IL-2 0 ng/mL); test: as above; details: 72 h
[17] = tested on: normal primary NK cells, pool 1 (3 donors) (IL-2 2.5 ng/mL); test: as above; details: 72 h
[18] = tested on: IMC-1 (IL-2 20 ng/mL); test: as above; details: 72 h
[19] = tested on: KAI3 (IL-2 2.5 ng/mL); test: as above; details: 72 h
[20] = tested on: NK-YS (IL-2 2.5 ng/mL); test: as above; details: 72 h
[21] = tested on: NKL (IL-2 2.5 ng/mL); test: as above; details: 72 h
[22] = tested on: DERL-7 (IL-2 2.5 ng/mL); test: as above; details: 72 h
[23] = tested on: KHYG-1 (IL-2 2.5 ng/mL); test: as above; details: 72 h
[24] = tested on: YT (IL-2 2.5 ng/mL); test: as above; details: 72 h
[25] = tested on: normal primary NK cells, pool 3 (3 donors) (IL-2 2.5 ng/mL); test: as above; details: 72 h
[26] = tested on: SNK-6 (IL-2 2.5 ng/mL); test: as above; details: 72 h
[27] = tested on: NK-92 (IL-2 2.5 ng/mL); test: as above; details: 72 h
[28] = tested on: normal primary NK cells, pool 2 (3 donors) (IL-2 2.5 ng/mL); test: as above; details: 72 h

CCOc1cc2ncc(C#N)c(Nc3ccc(F)c(Cl)c3)c2cc1NC(=O)/C=C/CN(C)C [Pelitinib] (max concentration tested 2500 nM)
percent inhibition of viability [%]
Details | 0.25 nM | 2.5 nM | 25 nM | 250 nM | 2500 nM
[1] | -1.17 | 1.75 | 2.79 | 36.6 | 99.5
[2] | 4.48 | -8.29 | 4.76 | 14.7 | 82.3
[3] | 3.39 | -4.76 | 4.88 | 39 | 94.2
[4] | -0.29 | 1.94 | 3.33 | -17.4 | 99.7
[5] | -6.96 | -4.92 | 1.78 | 40.4 | 84.1
[6] | 0.78 | -5.84 | 0.53 | -1.43 | 73.7
[7] | -12.4 | -7.42 | -0.44 | 15.2 | 92.2
[8] | -4.83 | -5.06 | 2.43 | 41.3 | 99.9
[9] | 1.04 | 0.45 | 7.11 | 25.7 | 101
[10] | 4.94 | 2.25 | 8.23 | 7.75 | 51.7
[11] | -8.11 | -2.18 | 2.55 | 19.3 | 94.4
[12] | 29.9 | 30.9 | 23.3 | 32.9 | 95.6
[13] | -0.1 | -2.5 | 13 | 13.8 | 98.3
[14] | -10.8 | 5.08 | 7.69 | 43 | 91.3

Details | drug sensitivity score
[15] | 10.3
[16] | 6.98
[17] | 9.9
[18] | 4.58
[19] | 9.6
[20] | 3.95
[21] | 7.63
[22] | 10.7
[23] | 9.44
[24] | 4.06
[25] | 8.33
[26] | 16.3
[27] | 7.76
[28] | 10.1

CC(C)N(CCCNC(=O)Nc1ccc(C(C)(C)C)cc1)C[C@H]1O[C@@H](n2cc(Br)c3c(N)ncnc32)[C@H](O)[C@@H]1O [SGC0946] (max concentration tested 10000 nM)
percent inhibition of viability [%]
Details | 1 nM | 10 nM | 100 nM | 1000 nM | 10000 nM
[1] | -2.37 | -3.94 | 1.95 | 8.9 | 10.9
[2] | 15.8 | -4.32 | 5.19 | -6.57 | 62.3
[3] | 8.37 | -3.22 | 1.91 | -6.49 | 19
[4] | -8.07 | -3.94 | -2.69 | 2.99 | 17.2
[5] | 2.28 | -1.4 | -1.58 | 5.53 | 72.2
[6] | -4.5 | -0.39 | 3.77 | -0.01 | 21.5
[7] | -15 | -7.75 | 4.16 | 0.58 | 33.7
[8] | 4.94 | 2.4 | 5.77 | 1.04 | 37
[9] | -5.1 | -1.55 | -1.47 | 1.03 | 17
[10] | -3.26 | -3.19 | 0.56 | 0.95 | 27.2
[11] | -5.94 | -2.43 | 8.64 | 3.42 | 22.6
[12] | -6.32 | -2.25 | 0.17 | 25.4 | 38.7
[13] | -2.74 | -1.7 | 19.9 | 10.5 | 40.7
[14] | -1.67 | -6.15 | 8.39 | -1.8 | 25.8

Details | drug sensitivity score
[15] | 0.11
[16] | 2.93
[17] | 0.32
[18] | 0.74
[19] | 4.84
[20] | 0.7
[21] | 1.63
[22] | 1.92
[23] | 0.48
[24] | 1.23
[25] | 1.29
[26] | 4.92
[27] | 3.88
[28] | 0.89
